Patent US20240148821A1, “PHARMACEUTICAL USE OF CYCLIC PEPTIDE COMPOUND” (CHUGAI SEIYAKU KABUSHIKI KAISHA, priority 2021, published 2024)
pIC50: −log10 of the molar value. Numbered stars: 1 amine (or outer) side, 2 acyl side, 3 side chain; on linkers, the order of the positions; unused ones are H or OH. Bridge positions count the residues as written; N and C are the ends. Square brackets hold non-standard residues; d marks the D form. Peptide text beside a SMILES is read from it. * marks the point of attachment. hPhe(3-Cl-4-CF3) = N[C@@H](CCc1ccc(C(F)(F)F)c(Cl)c1)C(=O)O; hPhe(3-F,4-CF3) = N[C@@H](CCc1ccc(C(F)(F)F)c(F)c1)C(=O)O; hPhe(4-CF3) = N[C@@H](CCc1ccc(C(F)(F)F)cc1)C(=O)O; 3Oxa8azabicyclo(3.2.1)octane = C1CC2COCC1N2*; NMePhe(4-Cl) = CN[C@@H](Cc1ccc(Cl)cc1)C(=O)O; NMePhe(4-Me) = CN[C@@H](Cc1ccc(C)cc1)C(=O)O; NMeGly(cPent) = CN[C@H](C(=O)O)C1CCCC1; X67 = O=C([C@@H]1CCC[C@H]1N[*:1])[*:2]; NMe3Pal = CN[C@@H](Cc1cccnc1)C(=O)O; NMeCha = CN[C@@H](CC1CCCCC1)C(=O)O; NMeChg = CN[C@H](C(=O)O)C1CCCCC1; NMeF = CN[C@@H](Cc1ccccc1)C(=O)O; NMeI = CC[C@H](C)[C@H](NC)C(=O)O; NMeD = CN[C@@H](CC(=O)O)C(=O)O; NMeL = CN[C@@H](CC(C)C)C(=O)O; NMeNva = CCC[C@H](NC)C(=O)O; NMeV = CN[C@H](C(=O)O)C(C)C; d(β3hA) = C[C@@H](N)CC(=O)O; NMeA = CN[C@@H](C)C(=O)O; Piperidide = C1CCN(*)CC1; Ac5c = NC1(C(=O)O)CCCC1; Aze = O=C(O)[C@@H]1CCN1; Sar = CNCC(=O)O

biological target: protein-protein interaction between Kras and SOS1 (biotin-tagged human Kras loaded with GDP, His-tagged human SOS1) (Homo sapiens (Human), UniProt P01116, G12D); assay: Protein-protein interaction inhibition between Kras and SOS1 (KrasG12D-SOS PPI) using AlphaScreen; type: biochemical; settings: AlphaScreen; biotin-tagged human Kras loaded with GDP, His-tagged human SOS1; read-out: KRAS G12D-SOS PPI IC50;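 note: kras produced in E. coli, Ni-coupled donor beads and streptavidin acceptor beads, excitation 680 nm with emission detected at 520–620 nm via singlet oxygen transfer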

| Compound | pIC50 |
| --- | --- |
| CC[C@H](C)[C@@H]1NC(=O)[C@H](C)N(C)C(=O)C[C@@H](C)NC(=O)[C@H](CC(C)C)N(C)C(=O)[C@H](Cc2ccccc2)N(C)C(=O)[C@H](C)N(C)C(=O)[C@H](CCc2ccc(C(F)(F)F)cc2)NC(=O)CN(C)C(=O)[C@H](Cc2ccc(Cl)cc2)N(C)C(=O)CN(C)C(=O)CN(C)C1=O [Compound 978] (cyclo(I[Sar][Sar][NMePhe(4-Cl)][Sar][hPhe(4-CF3)][NMeA][NMeF][NMeL][d(β3hA)][NMeA])) | 6.77 |
| CCC[C@H]1C(=O)N(C)[C@H](C(=O)N2CCCCC2)CC(=O)N(C)[C@@H](CC(C)C)C(=O)N[C@@H]([C@@H](C)CC)C(=O)N(C)[C@@H](C)C(=O)N2CC[C@H]2C(=O)N(C)[C@@H](CC2CCCCC2)C(=O)N(C)CC(=O)N[C@@H](CCc2ccc(C(F)(F)F)c(Cl)c2)C(=O)N2CCC[C@H]2C(=O)NC2(CCCC2)C(=O)N1C [Compound 995] ([NMeL]I[NMeA][Aze][NMeCha][Sar][hPhe(3-Cl-4-CF3)]P[Ac5c][NMeNva][NMeD]-Piperidide; lactam N-11) | 8.24 |
| CC[C@H](C)[C@@H]1NC(=O)[C@H](C(C)C)N(C)C(=O)[C@@H]2CCC[C@H]2NC(=O)[C@H](CC(C)C)N(C)C(=O)C2(CCCC2)NC(=O)[C@H](CC(C)C)N(C)C(=O)[C@H](CCc2ccc(C(F)(F)F)cc2)NC(=O)CN(C)C(=O)[C@H](Cc2ccc(Cl)cc2)N(C)C(=O)CN(C)C(=O)CN(C)C1=O [Compound 996] (cyclo([Ac5c][NMeL][X67][NMeV]I[Sar][Sar][NMePhe(4-Cl)][Sar][hPhe(4-CF3)][NMeL])) | 7.05 |
| CC[C@H](C)[C@@H]1NC(=O)[C@H](CC(C)C)N(C)C(=O)C[C@@H](C(=O)N2C3CCC2COC3)N(C)C(=O)[C@H]([C@@H](C)CC)N(C)C(=O)C2(CCCC2)NC(=O)[C@@H]2CCCN2C(=O)[C@H](CCc2ccc(C(F)(F)F)c(Cl)c2)NC(=O)CN(C)C(=O)[C@H](C2CCCC2)N(C)C(=O)[C@@H]2CCN2C(=O)[C@H](C)N(C)C1=O [Compound 1002] ([NMeL]I[NMeA][Aze][NMeGly(cPent)][Sar][hPhe(3-Cl-4-CF3)]P[Ac5c][NMeI][NMeD]-{3Oxa8azabicyclo(3.2.1)octane}; lactam N-11) | 8.68 |
| CCC[C@H]1C(=O)NC2(CCCC2)C(=O)N(C)[C@@H](C2CCCCC2)C(=O)N(C)[C@H](C(=O)N2CCCCC2)CC(=O)N(C)[C@@H](CC(C)C)C(=O)N[C@@H]([C@@H](C)CC)C(=O)N(C)CC(=O)N(C)CC(=O)N(C)[C@@H](CC2CCCCC2)C(=O)N(C)CC(=O)N[C@@H](CCc2ccc(C(F)(F)F)c(Cl)c2)C(=O)N1C [Compound 1005] ([NMeL]I[Sar][Sar][NMeCha][Sar][hPhe(3-Cl-4-CF3)][NMeNva][Ac5c][NMeChg][NMeD]-Piperidide; lactam N-11) | 8.46 |
| CC[C@H](C)[C@@H]1NC(=O)[C@H](CC(C)C)N(C)C(=O)C[C@@H](C(=O)N2CCCCC2)N(C)C(=O)[C@H](C2CCCC2)N(C)C(=O)C2(CCCC2)NC(=O)[C@@H]2CCCN2C(=O)[C@H](CCc2ccc(C(F)(F)F)c(F)c2)NC(=O)CN(C)C(=O)[C@H](Cc2ccc(C)cc2)N(C)C(=O)[C@@H]2CCN2C(=O)[C@H](C)N(C)C1=O [Compound 1008] ([NMeL]I[NMeA][Aze][NMePhe(4-Me)][Sar][hPhe(3-F,4-CF3)]P[Ac5c][NMeGly(cPent)][NMeD]-Piperidide; lactam N-11) | 9.12 |
| CC[C@H](C)[C@@H]1NC(=O)[C@H](C)N(C)C(=O)C[C@@H](C(=O)N2CCCCC2)N(C)C(=O)[C@H](C2CCCCC2)N(C)C(=O)C2(CCCC2)NC(=O)[C@H](Cc2cccnc2)N(C)C(=O)[C@H](CCc2ccc(C(F)(F)F)c(Cl)c2)NC(=O)CN(C)C(=O)[C@H](CC2CCCCC2)N(C)C(=O)CN(C)C(=O)CN(C)C1=O [Compound 1012] ([NMeA]I[Sar][Sar][NMeCha][Sar][hPhe(3-Cl-4-CF3)][NMe3Pal][Ac5c][NMeChg][NMeD]-Piperidide; lactam N-11) | 8.92 |
| CC[C@H](C)[C@@H]1NC(=O)[C@H](C(C)C)N(C)C(=O)C[C@@H](C)NC(=O)[C@H](CC(C)C)N(C)C(=O)C2(CCCC2)NC(=O)[C@H](CC(C)C)N(C)C(=O)[C@H](CCc2ccc(C(F)(F)F)c(Cl)c2)NC(=O)CN(C)C(=O)[C@H](Cc2ccc(Cl)cc2)N(C)C(=O)CN(C)C(=O)CN(C)C1=O [Compound 1014] (cyclo([Ac5c][NMeL][d(β3hA)][NMeV]I[Sar][Sar][NMePhe(4-Cl)][Sar][hPhe(3-Cl-4-CF3)][NMeL])) | 7.89 |
| CC[C@H](C)[C@@H]1NC(=O)[C@H](CC(C)C)N(C)C(=O)C[C@@H](C)NC(=O)[C@H](C(C)C)N(C)C(=O)C2(CCCC2)NC(=O)[C@@H]2CCCN2C(=O)[C@H](CCc2ccc(C(F)(F)F)c(Cl)c2)NC(=O)CN(C)C(=O)[C@H](Cc2ccc(Cl)cc2)N(C)C(=O)[C@@H]2CCN2C(=O)[C@H](C)N(C)C1=O [Compound 1018] (cyclo([Ac5c][NMeV][d(β3hA)][NMeL]I[NMeA][Aze][NMePhe(4-Cl)][Sar][hPhe(3-Cl-4-CF3)]P)) | 7.96 |
